In publication PMC1828167, “HIV-1 integrase inhibitors are substrates for the multidrug transporter MDR1-P-glycoprotein” (Retrovirology, 2007):
pEC50, pIC50: −log10 of the molar value.

Legend:
[1] = Cytotoxicity in HIV infected H9 cell line (trypan blue exclusion); format: cell-based, human; settings: human, HIV-1 (HTLVIIIB) infected H9 T lymphoid cells, 50% Cytotoxic Concentration
Experimental: (§1) Anti-HIV activity was measured in the human T lymphoid H9 cells. To this purpose, cells were cultured in RPMI 1640, supplemented with 2 mM L-glutamine, penicillin, streptomycin and 10% fetal bovine serum (FBS), and infected with the HTLVIIIB laboratory strain of HIV-1 virus (100000 TCID50 – Tissue Culture Infective Dose- per 10^6 […]). After two hours of incubation, cells were washed with medium, and cultured at 37°C (5000 cells/well in 96-well microplates) for 3 days in presence of medium and test compounds at concentrations ranging from 50 μM to 0.1 μM. After 3 days p24 antigen concentration in the supernatants was measured by an ELISA assay (Innotest HIV antigen mAb, Innogenetics NV Belgium). Cell viability was determined by the trypan blue exclusion method.
(§2) The 50% inhibitory drug concentration (IC50) and the 50% cytotoxic drug concentration (CC50) were calculated by the median effect equation using Calcusyn Version 2.0 program (Biosoft Cambridge)

[2] = biological target: HIV-1 Integrase (IN); parameters: method as in PMID 16539381; settings: HIV-1 integration strand transfer step; 50% Inhibitory Concentration; cited from earlier work
[3] = biological target: T1, MDR1-P-glycoprotein (P-gp) (Homo sapiens, UniProt P08183); experiment: UIC2 shift assay (P-gp functional conformation) in CEM-VBL10 cells; format: cell-based; parameters: CEM-VBL10 and CEM-VBL100 cells were isolated by stepwise selection of the parental drug sensitive CCRF-CEM (CEM) in the presence of increasing concentrations of VBL; endogenous in cells; host or cells: CEM-VBL10 (UIC2 shift assay) and CEM-VBL100 (doxorubicin efflux assay), MDR variants of CCRF-CEM; key to UIC2 epitope up-modulation (A): the + or ++ symbols indicate arbitrary units in measuring and differentiating the level of UIC2 epitope modulation and doxorubicin retention; the + or ++ symbols indicate arbitrary units in measuring and differentiating the level of UIC2 epitope modulation and doxorubicin retention; settings: for mAb UIC2 reactivity: 37°C (Fig 1)
T1 sequence (P08183 whole entry): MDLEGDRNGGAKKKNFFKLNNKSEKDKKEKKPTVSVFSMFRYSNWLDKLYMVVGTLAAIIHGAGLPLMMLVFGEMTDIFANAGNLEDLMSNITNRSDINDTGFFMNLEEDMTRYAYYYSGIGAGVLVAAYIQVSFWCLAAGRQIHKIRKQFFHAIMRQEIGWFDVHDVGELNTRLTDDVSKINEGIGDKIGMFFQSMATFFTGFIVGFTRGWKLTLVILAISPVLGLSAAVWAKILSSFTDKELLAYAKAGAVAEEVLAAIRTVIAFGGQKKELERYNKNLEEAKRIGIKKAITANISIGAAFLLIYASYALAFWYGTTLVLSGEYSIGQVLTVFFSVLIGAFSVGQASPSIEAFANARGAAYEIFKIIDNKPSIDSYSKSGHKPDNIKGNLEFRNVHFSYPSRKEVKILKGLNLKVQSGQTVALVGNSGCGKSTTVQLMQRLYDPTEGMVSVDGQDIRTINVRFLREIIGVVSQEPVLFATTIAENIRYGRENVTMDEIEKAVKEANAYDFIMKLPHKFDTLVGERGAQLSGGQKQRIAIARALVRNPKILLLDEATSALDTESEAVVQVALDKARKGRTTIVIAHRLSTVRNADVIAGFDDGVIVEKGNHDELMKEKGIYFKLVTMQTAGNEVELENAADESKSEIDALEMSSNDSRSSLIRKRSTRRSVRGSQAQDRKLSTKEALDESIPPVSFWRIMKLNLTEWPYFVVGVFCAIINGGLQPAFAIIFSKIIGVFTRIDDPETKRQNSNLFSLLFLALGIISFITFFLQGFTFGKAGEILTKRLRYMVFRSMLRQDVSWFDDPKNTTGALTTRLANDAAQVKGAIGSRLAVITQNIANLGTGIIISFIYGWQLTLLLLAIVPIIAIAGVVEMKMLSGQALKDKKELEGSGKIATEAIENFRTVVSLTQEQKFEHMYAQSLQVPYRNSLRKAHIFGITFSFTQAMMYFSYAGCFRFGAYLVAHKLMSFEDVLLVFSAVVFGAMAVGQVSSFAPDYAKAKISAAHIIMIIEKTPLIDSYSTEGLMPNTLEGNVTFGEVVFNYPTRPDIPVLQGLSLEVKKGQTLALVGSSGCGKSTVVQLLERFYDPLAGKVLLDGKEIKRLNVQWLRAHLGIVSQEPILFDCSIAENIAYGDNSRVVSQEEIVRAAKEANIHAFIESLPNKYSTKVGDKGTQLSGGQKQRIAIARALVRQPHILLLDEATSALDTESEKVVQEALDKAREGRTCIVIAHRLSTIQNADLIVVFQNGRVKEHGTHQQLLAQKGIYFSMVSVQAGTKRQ
Experimental: (§3) The anti CD4-FITC mAb was purchased from Vinci Biochem, Firenze, Italy. The mAb UIC2 [30] was kindly provided by Dr. E. Mechetner (Chemicon Inc, Temecula, CA). For determination of P-gp expression, the mAb MM4.17, recognizing an extracellular P-gp epitope on intact/living human MDR cells, was also used. Both UIC2 and MM4.17 mAbs were used in a highly purified form.
The UIC2 shift assay was performed under physiological conditions as previously described. CEM-VBL10 cells (1 × 10^6) were resuspended in 1 ml of PBS containing 2% FCS and allowed to equilibrate at 37°C in a water bath for 10 min. The various IINs were added to samples (final concentrations 100 or 50 μg/ml) and incubated for additional 15 min at 37°C with purified UIC2 mAb (final concentration 12.5 μg/ml). VBL (10 μg/ml), which is a well known UIC2 shifting agent, and the drug diluents were used as positive and negative controls, respectively. Cells were then washed twice in ice-cold PBS containing 2% FCS with 0.01 % sodium azide (Shift Stop Buffer, SSB), stained on ice in SSB for additional 15 min with 5 μg/ml of fluorescein -conjugated goat-antimouse antibody (FITC-GAM, Cappel, West Chester, Pa, USA), washed twice with ice cold PBS/FACS and maintained in ice until flow cytometry analysis. The UIC2 shift is the difference between UIC2 binding in the presence versus the absence of the IINs under physiological conditions (37°C).

[4] = biological target: T1, MDR1-P-glycoprotein (P-gp); experiment: MDR efflux assay: doxorubicin efflux inhibition in CEM-VBL100 cells (flow cytometry); format: cell-based; parameters: CEM-VBL10 and CEM-VBL100 cells were isolated by stepwise selection of the parental drug sensitive CCRF-CEM (CEM) in the presence of increasing concentrations of VBL; endogenous in cells; host or cells: CEM-VBL10 (UIC2 shift assay) and CEM-VBL100 (doxorubicin efflux assay), MDR variants of CCRF-CEM; key to Doxorubicin efflux inhibition (B): the + or ++ symbols indicate arbitrary units in measuring and differentiating the level of UIC2 epitope modulation and doxorubicin retention; the + or ++ symbols indicate arbitrary units in measuring and differentiating the level of UIC2 epitope modulation and doxorubicin retention; settings: for Doxorubicin efflux inhibition (B): CEM-VBL100 cells
Experimental: […] The cells were incubated with doxorubicin (10 μg/ml) only or drug diluent in parallel cultures. At the end of incubation, the cells were washed in serum-free medium and resuspended in BM in the presence of the IINs or Verapamil (drug diluent was added in control samples) for a further 1 h at 37°C. Finally, cells were washed twice with ice-cold PBS/FACS, and analyzed in a flow cytometer (FACScan, Becton Dickinson, San Josè, CA).

[5] = test system: P-gp expression in CEMrev cells; experiment: Induction of P-gp expression in CEMrev cells (flow cytometry); format: cell-based, human; settings: for % of P-gp expressing cells: CEMrev
Description: Similarly to some of the isozymes involved in drug metabolism, the expression of P-gp is inducible. It is therefore important to assess whether P-gp induction occurs upon exposure to IINs, with potential implications for drug metabolism. To this aim, we investigated whether the treatment with the IINs RDS 1974, RDS 1983, RDS 1984 and RDS 1996, all having different biological and physicochemical properties (Table 1), modulate P-gp expression in the human CD4+ CEM cell system. The parental drug sensitive CEM cell line and the revertant of its derivative CEM-VBL10 MDR cell variant (CEMrev), expressing very low or undetectable amount of P-gp, were cultured in the presence of the indicated IINs ([…]; 25 μg/ml for RDS 1983 and RDS 1984) for 28 days (RDS 1983, RDS 1984 and RDS 1996) or 104 days (RDS 1974). As a control for P-gp modulation, CEMrev cells were exposed to VBL, shown to increase P-gp expression.
The multidrug resistant (MDR) variants CEM-VBL10 and CEM-VBL100 cells were isolated by stepwise selection of the parental drug sensitive CCRF-CEM (CEM) in the presence of increasing concentrations of VBL [31, 32]. Cells were grown under standard conditions for mammalian cells cultured in suspension. The basic medium (BM) for cell culturing consisted of RPMI-1640 supplemented with 10% foetal calf serum (FCS), L-glutamine (2 mM) penicillin (100 U/mL) and streptomycin (100 U/mL). All these components were purchased from Hyclone (Logan, Utah). Identical BM, culture conditions and trypsin (Hyclone) were used for the adherent MDR variant KB.V1 of the human oral epidermoid carcinoma KB cells. To test the ability of selected IINs (RDS 1974, […], RDS 1984 and RDS 1996) to induce de novo expression of P-glycoprotein, the drug-sensitive CEMrev cell line was used; this cell line derives from the CEM-VBL10 MDR cell line, cultured for more than 2 years in VBL-free medium and expresses very low (1–3%) or undetectable amounts of P-gp.
as §3

[6] = test system: HTLVIIIB laboratory strain of HIV-1 virus; experiment: Anti-HIV activity in HIV-infected H9 cells (p24 antigen ELISA); format: cell-based; settings: HIV infected H9 cell line, 3 days, 50% Effective Concentration
Experimental: as §1, §2

[7] = biological target: T1, MDR1-P-glycoprotein (P-gp); experiment: Doxorubicin efflux/retention in KB-V1 MDR cells (confocal microscopy); settings: 25 μg/ml, 5 μg/ml doxorubicin, 1 and 3 hrs of extrusion
[8] = test system: P-gp expression in CEM cells; experiment: Induction of P-gp expression in parental drug sensitive CEM cells (flow cytometry); format: cell-based, human; settings: 25 μg/ml, 28 days of culture
Description: Similarly to some of the isozymes involved in drug metabolism, the expression of P-gp is inducible. It is therefore important to assess whether P-gp induction occurs upon exposure to IINs, with potential implications for drug metabolism. To this aim, we investigated whether the treatment with the IINs RDS 1974, RDS 1983, RDS 1984 and RDS 1996, all having different biological and physicochemical properties (Table 1), modulate P-gp expression in the human CD4+ CEM cell system. The parental drug sensitive CEM cell line and the revertant of its derivative CEM-VBL10 MDR cell variant (CEMrev), expressing very low or undetectable amount of P-gp, were cultured in the presence of the indicated IINs (10 μg/ml for RDS 1974 and RDS 1996; 25 μg/ml for RDS 1983 and RDS 1984) for 28 days (RDS 1983, RDS 1984 and RDS 1996) or 104 days (RDS 1974). As a control for P-gp modulation, CEMrev cells were exposed to VBL, shown to increase P-gp expression.
The multidrug resistant (MDR) variants CEM-VBL10 and CEM-VBL100 cells were isolated by stepwise selection of the parental drug sensitive CCRF-CEM (CEM) in the presence of increasing concentrations of VBL [31, 32]. Cells were grown under standard conditions for mammalian cells cultured in suspension. […]

[9] = test system: H9 cells; experiment: Cytotoxicity in HIV infected H9 cell line (trypan blue exclusion); format: cell-based, human; settings: 50% Cytotoxic Concentration
Experimental: as §1, §2

In the case of `O=C(O)/C(O)=C/C(=O)c1cn(Cc2c(F)cccc2F)c2ccccc2c1=O` [RDS 1984], the CC50 at 3 days [1] is listed as > 50 µM, the pIC50 [2] is listed as 7.72 and the “mAb UIC2 reactivity” value ([3]; 50 μg/ml) is listed as “increased”. The “intracellular accumulation of doxorubicin” value ([4]; CEM-VBL100 MDR cells, 1 μg/ml to 100 μg/ml (Fig 2)) was “intracellular accumulation of doxorubicin with a dose dependent effect”, the “% of P-gp expressing cells” value ([5]; 25 μg/ml, 28 days of culture) was 15–18% and the pEC50 ([6]; Human immunodeficiency virus 1, 72 h) was 5.02. For the same compound, the doxorubicin retention [7] was “doxorubicin was retained” and the “% of P-gp expressing cells” value [8] was 0%.

For `O=C(O)C(=O)/C=C(\O)c1ccc2c(c1)c(=O)c(/C(O)=C/C(=O)C(=O)O)cn2Cc1ccc(F)cc1` [RDS 1997], the CC50 [9] was > 50 µM, the “UIC2 epitope up-modulation (A)” value ([3]; 50 μg/ml) was “+” and the “UIC2 epitope up-modulation (A)” value ([3]; 100 μg/ml) was “++”. The “Doxorubicin efflux inhibition (B)” value ([4]; 25 μg/ml) was “+”, the “Doxorubicin efflux inhibition (B)” value ([4]; 50 μg/ml) was “++” and the pEC50 [6] was 5.61.

With `CC[C@]1(O)C[C@@H]2CN(CCc3c([nH]c4ccccc34)[C@@](C(=O)OC)(c3cc4c(cc3OC)N(C)[C@H]3[C@@](O)(C(=O)OC)[C@H](OC(C)=O)[C@]5(CC)C=CCN6CC[C@]43[C@@H]65)C2)C1` [Vinblastine] the “mAb UIC2 reactivity” value ([3]; 10 μg/ml) was “increased”, the “P-gp expression (in words)” value ([5]; CEMrev cell line, compared with the drug diluent control) was “strong induction of P-gp expression” and the “% of P-gp expressing cells” value ([5]; 10 μg/ml, 28 days of culture) was 30–35%. For the same compound, the “% of P-gp expressing cells” value ([5]; 10 μg/ml, 104 days of culture) was 60–70%.
